Results reported in patent publication US20070015759A1, “Metasubstituted thiazolidinones, their manufacture and use as a drug” (priority 2004, published 2007).

Columns and labels:
[1] = molecular target: T1, Recombinant human Plk-1 (6×His) (Homo sapiens, UniProt P53350); test: PLK enzyme assay (33P-γ-ATP incorporation into biotin casein, SPA beads); format: biochemical; details: 0.5 μM ATP, 0.7 μM casein, 90 minutes at room temperature, read-out: Inhibition PLK-1 IC50
T1 construct: 6xHis; made in house; host or cells: Hi5 insect cells, baculovirus
Experimental: Recombinant human Plk-1 (6×His) was purified from insect cells (Hi5) infected with a baculovirus.
10 ng (recombinant created, purified) PLK enzyme is incubated for 90 minutes at room temperature with biotin casein and 33P-γ-ATP as a sub-stratum in a volume of 15 μl in 384 well Greiner Small Volume Microtiterplates (final concentration in buffer: 660 ng/ ml PLK; 0.7 μM Casein, 0.5 μM ATP incl. 400 nCi/ml 33P-γ-ATP; 10 mM MgCl2, 1 mM MnCl2; 0.01% NP40; 1 mM DTT, Protease inhibitors; 0.1 mM Na2VO3 in 50 mM HEPES pH 7.5). At the end of the reaction a 5 μl stop solution (500 μM ATP; 500 mM EDTA; 1% triton ×100; 100 mg/ ml streptavidin coated SPA Beads in PBS) was added. After the microtiter plate is closed with foil, the beads are sedimented through centrifugation (10 min., 1500 rpm). The fixing of the 33P-γ-ATP in casein was set as a measure of the enzyme activity by β-Counting.
Test substances were introduced in various concentrations (0 μM, and in the range of 0.01-30 μM). The final concentration of the dimethylsulfoxide solvent in all concentrations amounted to 1.5%.

[2] = system: human MaTu breast tumor cells; test: Proliferation assay (crystal violet staining); format: cell-based; details: 96 h, incubated for 4 days with test substance, read-out: Inhibition of tumor cell proliferation (MaTu) IC50
Experimental: Cultivated human MaTu breast tumor cells were spread on plates to a thickness of 5000 cells per measuring point in a 96-hole multititerplate in 200 μl of the appropriate growth medium. After 24 hours the cells of one plate (the zero-point plate) were stained with crystal violet (see below), while the medium of the other plates was replaced by fresh culture medium (200 μl), to which was added the test substances in various concentrations (0 μM and in the range of 0.01 to 30 μm; the final concentration of the dimethylsulfoxide solvent was 0.5%). The cells were incubated for 4 days in the presence of the test substances. The cell proliferation was determined by the staining of the cells with crystal violet. The cells were fixed by the addition of 20 μl per measuring point of an 11% glutaraldehyde solution for 15 minutes at room temperature. After the fixed cells were washed three times with water, the plates were dried at room temperature. The cells were stained by the addition of 100 μl per measuring point of a 0.1% crystal violet solution (pH set at pH3 through the addition of acetic acid). After the fixed cells were washed three times with water, the plates were dried at room temperature. The coloring was dissolved by the addition of 100 μl per measuring point of a 10% acetic acid solution. Extinction was determined photometrically at a wave length of 595 nm. The percentage change of the cell growth was calculated by normalizing the measured values at the extinction value of the zero-point plate (=0%) and the extinction of the untreated cells (0 μM) (=100%).

T1 sequence (P53350 whole entry): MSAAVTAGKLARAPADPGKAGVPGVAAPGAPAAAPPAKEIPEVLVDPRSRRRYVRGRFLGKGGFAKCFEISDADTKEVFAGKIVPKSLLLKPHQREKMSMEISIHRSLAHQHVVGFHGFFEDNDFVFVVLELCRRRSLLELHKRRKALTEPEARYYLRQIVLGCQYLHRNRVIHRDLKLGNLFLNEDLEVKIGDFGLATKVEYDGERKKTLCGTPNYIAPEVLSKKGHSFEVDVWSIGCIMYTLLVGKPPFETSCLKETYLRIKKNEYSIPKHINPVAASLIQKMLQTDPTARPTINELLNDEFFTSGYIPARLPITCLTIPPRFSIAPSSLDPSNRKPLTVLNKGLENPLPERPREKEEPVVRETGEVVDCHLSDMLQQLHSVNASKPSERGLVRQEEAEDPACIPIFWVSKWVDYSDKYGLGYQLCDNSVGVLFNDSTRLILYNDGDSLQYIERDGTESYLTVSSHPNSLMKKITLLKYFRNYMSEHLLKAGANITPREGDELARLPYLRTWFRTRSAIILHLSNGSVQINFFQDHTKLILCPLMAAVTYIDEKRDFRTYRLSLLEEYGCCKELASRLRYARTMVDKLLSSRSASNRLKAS

Structure (SMILES)	IC50 [1] [nM]	IC50 [2] [nM]
CCn1c(=C(C#N)C(=O)NCC(F)F)sc(=CNc2cccc(OCCN(C)C)c2)c1=O (mixture of isomers) [Example 127, 2-Cyano-N-(2,2-difluoro-ethyl)-2-[5-[1-[3-(2-dimethylamino-ethoxy)-phenylamino]-meth-(E/Z)-ylidene]-3-ethyl-4-oxo-thiazolidin-(2-(E or Z))-ylidene]-acetamide]	24	330
CCn1c(=C(C#N)C(=O)NCC(F)(F)F)sc(=CNc2cccc(NC(=O)C(C)(C)C)n2)c1=O (mixture of isomers) [Example 41, 2-Cyano-2-[5-[1-[6-(2,2-dimethyl-propionylamino)-pyridin-2-ylamino]-meth-(E/Z)-ylidene]-3-ethyl-4-oxo-thiazolidin-(2-(E or Z))-ylidene]-N-(2,2,2-trifluoro-ethyl)-acetamide]	20	830
C#CCNC(=O)C(C#N)=c1sc(=CNc2ccc(F)c(NC(=O)C(C)(C)C)c2)c(=O)n1CC (mixture of isomers) [Example 63, 2-Cyano-2-[5-[1-[3-(2,2-dimethyl-propionylamino)-4-fluoro-phenylamino]-meth-(E/Z)-ylidene]-3-ethyl-4-oxo-thiazolidin-(2-(E or Z))-ylidene]-N-prop-2-ynyl-acetamide]	100	650
CCn1c(=C(C#N)C(=O)NCC(F)(F)F)sc(=CNc2cccc(CCN3CCCC3)c2)c1=O (mixture of isomers) [Example 30, 2-Cyano-2-[3-ethyl-4-oxo-5-[1-[3-(2-pyrrolidin-1-yl-ethyl)-phenylamino]-meth-(E/Z)-ylidene]-thiazolidin-(2-(E or Z))-ylidene]-N-(2,2,2-trifluoro-ethyl)-acetamide]	16	200
CCn1c(=C(C#N)C(=O)NCC(F)(F)F)sc(=CNc2ccc(CCN3CCCC3)cc2)c1=O [Comparison 527 from PCT/EP2004/ 012242, reference compound]	–	2800
C#CCNC(=O)C(C#N)=c1sc(=CNc2cccc(OCCN(C)C)c2)c(=O)n1CC (mixture of isomers) [Example 126, 2-Cyano-2-[5-[1-[3-(2-dimethylamino-ethoxy)-phenylamino]-meth-(E/Z)-ylidene]-3-ethyl-4-oxo-thiazolidin-(2Z or E)-ylidene]-N-prop-2-ynyl-acetamide]	22	590
CCNC(=O)C(C#N)=c1sc(=CNc2cccc(NC(=O)CN3CCCC3)c2)c(=O)n1CC (mixture of isomers) [Example 55, 2-Cyano-N-ethyl-2-[3-ethyl-4-oxo-5-[1-[3-(2-pyrrolidin-1-yl-acetylamino)-phenylamino]-meth-(E/Z)-ylidene]-thiazolidin-(2-(E or Z))-ylidene]-acetamide]	150	780
C#CCNC(=O)C(C#N)=c1sc(=CNc2ccc(OCCN(C)C)cc2)c(=O)n1CC [Comparison 307 from PCT/EP2004/ 012242, reference compound]	71	1700
CCn1c(=C(C#N)C(=O)NCC(F)F)sc(=CNc2ccc(OCCN(C)C)cc2)c1=O [Comparison 310 from PCT/EP2004/ 012242, reference compound]	74	5600
CCn1c(=C(C#N)C(=O)NCC(F)(F)F)sc(=CNc2ccc(C(=O)NCCN3CCCC3)c(NC(=O)C(C)(C)C)c2)c1=O [Comparison 326 from PCT/EP2004/ 012242, reference compound]	73	1600
C#CCNC(=O)C(C#N)=c1sc(=CNc2ccc(C(=O)NCCN3CCCC3)c(NC(=O)C(C)(C)C)c2)c(=O)n1CC [Comparison 323 from PCT/EP2004/ 012242, reference compound]	140	2500
